Tests used:
eIF5A = eIF5A and eIF5A-Hyp levels in islets isolated from siRNA-injected mice (immunoblot, 3H-spermidine); type: in vivo, mouse; settings: si-eIF5A i.p. for three days
Experimental: To clarify this, islets were isolated from siRNA-injected mice and their function assessed in vitro. […] In order to further characterize this improvement in islet glucose responsiveness, glucose-stimulated Ca2+ mobilization (GSCa) studies were also performed. GSCa is a measure of islet glucose sensitivity that captures the dynamics of the islet glucose response, which is similar to GSIS (31). The GSCa, as measured by the change in fura-2 AM fluorescence ratio after glucose stimulation, was increased in si-eIF5A-treated islets compared to controls, reflecting the functional improvement seen in GSIS (FIG. 3D). This improved GSCa relative to controls persisted 48 and 72 hours post-isolation (data not shown). […]
Immunoblot and nitrite and iNOS assays: Whole cell extracts were resolved by electrophoresis on a 4-20% SDS-polyacrylamide gel, followed by immunoblot using anti-eIF5A1, anti-eIF5A2, anti-iNOS, anti-GFP, or anti-actin primary antibodies and fluorophore-labeled secondary antibodies. Immunoblots were visualized using the Li-Cor® Odyssey® system (Li-Cor Biosciences) and quantitated by scanning fluorometry using Odyssey Imaging v. […] Nitrite was quantitated by measuring nitric oxide-derived nitrite from INS-1 cell culture medium using the Griess reagent (Promega) according to the manufacturer's recommendations. iNOS activity was measured using a commercially available kit (Cayman). […]

iNOS = assay: Cytokine-induced iNOS protein in INS-1 cells (immunoblot); type: cell-based, rat
From the text: eIF5A1 and eIF5A2 are the only proteins known to contain the unique amino acid hypusine at position 50. Hypusine is formed as a posttranslational modification of residue Lys50 in a reaction requiring spermidine and catalyzed by the sequential actions of the enzymes deoxyhypusine synthase (DHS) and deoxyhypusine hydroxylase (DOHH) (Chen, K Y, and Liu, A Y. Biochemistry and function of hypusine formation on eukaryotic initiation factor 5A. Biol Signals. 1997; 6(3):105-109). […] To further investigate the mechanism of eIF5A-regulated translation of Nos2, studies were performed following overnight incubation of cells with mimosine (an inhibitor of DOHH) and GC7 (an inhibitor of DHS). […] Similar data using GC7 were obtained in primary mouse islets (data not shown) and in human islets (FIGS. 5F and 5G).
Because GC7 is known to be inactivated by the action amine oxidases, which are abundant in serum, typical studies with GC7 in the literature have used aminoguanidine to inhibit amine oxidases (16). […] To rule out possible adverse effects of GC7 on cell viability, quantitative 2 color fluorescence analysis of live (calcein-AM-positive) and dead (ethidium homodimer-1-positive) cells were performed using fluorescence cytometry.
Cytokine and inhibitor incubation studies: For cytokine incubation assays, a 1000× cocktail of cytokines containing 5 μg/ml IL1β, 10 μg/ml TNFα, and 100 μg/ml IFNγ (all prepared in 0.1% BSA in Tris-buffered saline) was applied at 1× final concentration to groups of 50 islets or 1×10^6 INS-1 (832/13) cells for a total of 4 h at 37° C. For GC7 incubation studies, GC7 was prepared at a stock concentration of 125 mM in 10 mM acetic acid and applied to cultures of 50 islets or 1×10^6 INS-1 cells to obtain the final concentrations indicted in the figures. Where needed, GC7 was protected from amine oxidases in serum by addition of 1 mM aminoguanidine (Sigma). Cells were incubated with GC7 overnight (˜16 h) at 37° C. prior to analysis. Cells were exposed to Leptomycin B (Cayman Chemicals) for 3 hours; leptomycin B was prepared at a 1000× stock concentration of 20 μg/ml in ethanol.
Immunoblot and nitrite and iNOS assays: Whole cell extracts were resolved by electrophoresis on a 4-20% SDS-polyacrylamide gel, followed by immunoblot using anti-eIF5A1, anti-eIF5A2, anti-iNOS, anti-GFP, or anti-actin primary antibodies and fluorophore-labeled secondary antibodies. Immunoblots were visualized using the Li-Cor® Odyssey® system (Li-Cor Biosciences) and quantitated by scanning fluorometry using Odyssey Imaging v. […] Nitrite was quantitated by measuring nitric oxide-derived nitrite from INS-1 cell culture medium using the Griess reagent (Promega) according to the manufacturer's recommendations. iNOS activity was measured using a commercially available kit (Cayman).

[1] = system: eIF5A-Hyp binding to mRNA; assay: RNA immunoprecipitation with eIF5A antibody in cytokine-treated INS-1 cells; type: cell-based, rat; settings: GC7 overnight, cytokines 4 h
From the text: The retention of both Nos2 transcripts and eIF5A in the nucleus upon inhibition of hypusination is consistent with a close relationship between the two molecules, such that eIF5A may serve to chaperone Nos2 transcripts from the nucleus to the cytoplasm in response to cytokine stimulation. eIF5A-Hyp binds to RNAs that contain the consensus sequence 5′-AAAUGU-3′ (47), which is present in the Nos2 mRNA. To determine if eIF5A-Hyp binds Nos2 mRNA, RNA immunoprecipitation assays using INS-1 cell total RNA were performed. […] In contrast, no co-precipitation of other NFkB target and non-target genes was observed.
RNA immunoprecipitation (RIP) assays: RIP assays from 1×10^7 formaldehyde cross-linked INS-1 cells were performed as described (75). Isotype-matched antibodies against eIF5A and the FLAG-M2 epitope (for control immunoprecipitations) were used at a final dilution of 1:100. Immunoprecipitated RNA was reversed transcribed and subjected to quantitative PCR amplification for selected genes as described above. All data represent the average of triplicate determinations from at least 3 independent RIP assays.

| Compound | reduction of eIF5A in islets (eIF5A) [%] | concentration at which inhibition of iNOS was observed (iNOS; co-incubation with 1 mM aminoguanidine) [µM] | iNOS protein after cytokines (iNOS; increasing inhibitor concentrations overnight, cytokines 4 h) | concentration required to substantially block iNOS (iNOS; without aminoguanidine) [µM] | co-precipitation of mRNA with eIF5A antibody [1] |
| --- | --- | --- | --- | --- | --- |
| 5′-AACGGAAUGACUUCCAGCUGA-3′ (siSTABLE modification, further chemistry not given here) [si-eIF5A] | ~50 |  |  |  |  |
| NCCCCCCCN=C(N)N [GC7] |  | ~3 | dose-dependent attenuation | > 30 | no co-precipitation of any mRNA species |

From patent publication US20120196918A1, “PREVENTING ISLET INFLAMMATION AND DYSFUNCTION AND MAINTAINING PROPER GLUCOSE LEVELS BY CONTROLLING eIF5A AND ITS HYPUSINATION” (priority 2009, published 2012)
